Values quoted from earlier work, collected in US20210352892A1, “MACROMOLECULAR AND NONPARTICULATE AGROCHEMICALS TO REDUCE VAPOR DRIFT” (University of Utah Research Foundation, priority 2019, published 2021).

Conditions: at 25 ° C.

vapor pressure: 4.5 mPa
SMILES: COc1c(Cl)ccc(Cl)c1C(=O)O [dicamba, 2-methoxy-3,6-dicholorobenzoic acid]
